Test results from patent US4267184A, “Antiinflammatory 4,5-diaryl-2-(substituted-thio)pyrroles and their corresponding sulfoxides and sulfones” (E. I. Du Pont de Nemours and Company, priority 1980, dated 1981).

Assays:
[1] = tested on: phenylquinone writhing in mice; test: Phenylquinone Writhing Test (analgesic activity); assay type: in vivo, female white mice; conditions: Mus musculus, oral, phenylquinone i.p., effective analgesic dose for 50% of the mice
Description: A procedure for detecting and comparing the analgesic activity of compounds in this series and standard drugs for which there is a good correlation with human efficacy is the phenylquinone writhing test.
(§1) The test procedures employed for determining antiinflammatory and analgesic activity are described below with test data included in Tables VII and VIII.
The phenylquinone writhing test, modified from Siegmund, et al., Proc. Soc. Exp. Biol. Med. 95, 729 (1957), was employed. A test compound suspended in 1% methylcellulose was given orally to fasted (17-21 hours) female white mice, 5-20 animals per double blind test. Aqueous (0.01% phenyl-p-benzoquinone) phenylquinone was injected intraperitoneally at 24 minutes later using 0.20 ml per mouse. […] The effective analgesic dose for 50% of the mice (ED50) was calculated by the moving average method of Thompson, W. R., Bact. Rev. 11, 115-145 (1947).

[2] = tested on: Adjuvant-Induced Arthritis in Rats; test: Established Adjuvant-Induced Arthritis in Rats; assay type: in vivo, Charles River Lewis male rats; conditions: for ED50: 168 h, oral gavage daily for 7 days, ED50% decrease from control paw volume
Procedure: A procedure for detecting and comparing the antiinflammatory activity of compounds in this series and standard drugs for which there is a good correlation with human efficacy is the adjuvant-induced arthritis test in rats.
as §1
Charles River Lewis male rats (130-150 grams) are injected subcutaneously in plantar area of the right hind paw with 0.1 ml of adjuvant (Difco heat-killed, lyophilized Mycobacterium butyricum suspended in mineral oil 5 mg/ml). 20 Non-arthritic controls are injected with mineral oil. The animals are held for 2 weeks to allow development of arthritis. Paw volumes (uninjected, left hind paw) are measured and the adjuvant injected rats are culled and distributed to treatment groups of 10 of equal disease severity. Non-arthritic controls are distributed to 2 groups of 10. The rats are given oral doses of compound or PVA-Acacia (Polyvinyl Alcohol 1%, Gum Acacia, U.S.P. 5%, Methylparaben 0.5%) (10 ml/kg) by gavage on that day and on the 6 following days. One day after the last dose the paw volumes (uninjected, left hind paw) are measured using a Ugo Basile Volume Differential Meter Model 7101. [formula]
Dose-response regression lines of the % decrease are plotted on semi-log paper by visual fit and the ED50% decrease from control paw volume is determined by inspection.

[3] = Rattus norvegicus, Table VII, oral, read-out: percent reduction in paw volume at the indicated dose

| SMILES | ED50 ([1]; Table VII) | ED50 ([2]; Rattus norvegicus, Table VII) | also measured |
| --- | --- | --- | --- |
| O=S(=O)(c1cc(-c2ccc(F)cc2)c(-c2ccc(F)cc2)[nH]1)C(F)(F)F [Example 56] | > 135 mg/kg | 1.4 mg/kg |  |
| CSc1cc(-c2ccc(F)cc2)c(-c2ccccc2)[nH]1 [Example 47] |  |  | inhibition in vivo at 200 mg/kg ([2]; Rattus norvegicus, Table VII, oral, dose 200 mg/kg, read-out: percent reduction in paw volume at the indicated dose): 46% |
| Fc1ccc(-c2cc(SC(F)(F)F)[nH]c2-c2ccc(Br)cc2)cc1 [Example 21] |  |  | ED50 ([1]; Table VIII): > 108 mg/kg; ED50 ([2]; Rattus norvegicus, Table VIII): 3.5 mg/kg |
| CN(C)c1ccc(-c2[nH]c(SC(F)(F)F)cc2-c2ccc(F)cc2)cc1 [Example 22] |  |  | ED50 ([1]; Table VIII): > 108 mg/kg; ED50 ([2]; Rattus norvegicus, Table VIII): 8.8 mg/kg |
| FC(F)(F)Sc1cc(-c2ccccc2)c(-c2ccc(Cl)c(Cl)c2)[nH]1 [Example 16] | > 108 mg/kg | 2.5 mg/kg |  |
| [O-][S+](c1cc(-c2ccc(F)cc2)c(-c2ccc(F)cc2)[nH]1)C(F)(F)F (centres unmarked) [Example 57] | > 135 mg/kg | 1 mg/kg |  |
| CCCc1c(SC(F)(F)F)[nH]c(-c2ccc(F)cc2)c1-c1ccc(F)cc1 [Example 33] |  |  | ED50 ([1]; Table VIII): > 108 mg/kg; ED50 ([2]; Rattus norvegicus, Table VIII): 6.5 mg/kg |
| Fc1ccc(-c2cc(SC(F)(F)F)[nH]c2-c2ccc(F)cc2)cc1 [Example 3, 4,5-bis(4-fluorophenyl)-2-(trifluoromethylthio)pyrrole] | > 135 mg/kg | 1.5 mg/kg |  |
| Cc1c(SC(F)(F)F)[nH]c(-c2ccccc2)c1-c1ccccc1 [Example 15] |  |  | ED50 ([1]; Table VIII): > 108 mg/kg; ED50 ([2]; Rattus norvegicus, Table VIII): 7.5 mg/kg |
| COc1ccc(-c2[nH]c(S(C)(=O)=O)cc2-c2ccc(Cl)cc2)cc1 [Example 69] | 38 mg/kg | 13 mg/kg |  |
| CSc1cc(-c2ccc(C)cc2)c(-c2ccc(C)cc2)[nH]1 [Example 49] | > 135 mg/kg | 50 mg/kg |  |
| COc1ccc(-c2cc(S(=O)(=O)C(F)(F)F)[nH]c2-c2ccc(OC)cc2)cc1 [Example 53] | 78 mg/kg |  | inhibition in vivo at 9 mg/kg ([2]; Rattus norvegicus, Table VII, oral, dose 9 mg/kg, read-out: percent reduction in paw volume at the indicated dose): 36% |
| COc1ccc(-c2[nH]c(SC(F)(F)F)cc2-c2ccc(F)cc2)cc1 [Example 8] | 26 mg/kg | 30 mg/kg |  |
| FC(F)(F)Sc1cc(-c2ccccc2)c(-c2ccc(Cl)cc2)[nH]1 [Example 24] |  |  | ED50 ([1]; Table VIII): > 135 mg/kg; ED50 ([2]; Rattus norvegicus, Table VIII): 10 mg/kg |
| COc1ccc(-c2cc(S(C)(=O)=O)[nH]c2-c2ccc(OC)cc2)cc1 [Example 54] | 16 mg/kg | 1 mg/kg |  |
| Fc1ccc(-c2cc(SC(F)(F)F)[nH]c2-c2cccnc2)cc1 [Example 28] |  |  | ED50 ([1]; Table VIII): > 135 mg/kg; ED50 ([2]; Rattus norvegicus, Table VIII): 0.04 mg/kg |
| Cc1ccc(-c2cc(S(C)(=O)=O)[nH]c2-c2ccc(C)cc2)cc1 [Example 72] | 7.2 mg/kg | 90 mg/kg |  |
| Fc1ccccc1-c1cc(SC(F)(F)F)[nH]c1-c1ccccc1F [Example 19] |  |  | ED50 ([1]; Table VIII): > 108 mg/kg; Adjuvant Arthritis, value in parenthesis (percent reduction in paw volume/dose) ([2]; Table VIII, oral, dose 45 (unit not given)): 29% |
| COc1ccc(-c2[nH]c(SC)cc2-c2ccc(Cl)cc2)cc1 [Example 46] | 63 mg/kg | 23 mg/kg |  |
| Fc1ccc(-c2cc(SC(F)(F)F)[nH]c2-c2ccccc2)cc1 [Example 10] | > 108 mg/kg |  | inhibition in vivo at 27 mg/kg [2, 3]: 22% |
| FC(F)(F)Sc1cc(-c2ccccc2)c(-c2ccccc2)[nH]1 [Example 1, 4,5-Diphenyl-2-(trifluoromethylthio)pyrrole] | > 135 mg/kg |  | inhibition in vivo at 25 mg/kg [2, 3]: 36% |
| Fc1ccc(-c2cc(SC(F)(F)F)[nH]c2-c2ccc(Cl)cc2)cc1 [Example 7] | > 108 mg/kg | 1.1 mg/kg |  |
| CCOc1ccc(-c2[nH]c(SC(F)(F)F)cc2-c2ccc(F)cc2)cc1 [Example 5] | > 130 mg/kg |  | inhibition in vivo at 27 mg/kg [2, 3]: 19% |

| SMILES | ED50 ([1]; Table VII) | ED50 ([2]; Rattus norvegicus, Table VII) | also measured |
| --- | --- | --- | --- |
| COc1ccc(-c2[nH]c(SC)cc2-c2ccc(F)cc2)cc1 [Example 45] | 78 mg/kg | 37 mg/kg |  |
| COc1ccc(-c2[nH]c(S(C)(=O)=O)cc2-c2ccc(F)cc2)cc1 [Example 68] | 18 mg/kg |  | inhibition in vivo at 27 mg/kg [2, 3]: 34% |
| CC(=O)n1c(SC(F)(F)F)cc(-c2ccc(F)cc2)c1-c1ccc(F)cc1 [Example 73, 1-Acetyl-4,5-bis(4-fluorophenyl)-2-(trifluoromethylthio)pyrrole] |  |  | ED50 ([1]; Table VIII): > 108 mg/kg; ED50 ([2]; Rattus norvegicus, Table VIII): 4 mg/kg |
| O=S(=O)(c1ccccc1)n1c(SC(F)(F)F)cc(-c2ccc(F)cc2)c1-c1ccc(F)cc1 [Example 77] |  |  | Adjuvant Arthritis, value in parenthesis (percent reduction in paw volume/dose) ([2]; Table VIII, oral, dose 9.0 (unit not given)): 37% |
| CCS(=O)(=O)c1cc(-c2ccc(OC)cc2)c(-c2ccc(OC)cc2)[nH]1 [Example 55] | 19 mg/kg | 9 mg/kg |  |
| Cn1c(SC(F)(F)F)cc(-c2ccc(F)cc2)c1-c1ccc(F)cc1 [Example 74, 1-Methyl-4,5-bis(4-fluorophenyl)-2-(trifluoromethylthio)pyrrole] |  |  | ED50 ([1]; Table VIII): > 108 mg/kg; ED50 ([2]; Rattus norvegicus, Table VIII): 1.1 mg/kg |
| [O-][S+](c1cc(-c2ccccc2)c(-c2ccccc2)[nH]1)C(F)(F)F (centres unmarked) [Example 52] | 30 mg/kg |  | inhibition in vivo at 25 mg/kg [2, 3]: 31% |
| CS(=O)(=O)c1ccc(-c2[nH]c(SC(F)(F)F)cc2-c2ccc(F)cc2)cc1 [Example 29] |  |  | ED50 ([1]; Table VIII): > 108 mg/kg; ED50 ([2]; Rattus norvegicus, Table VIII): 0.15 mg/kg |
| CSc1cc(-c2ccc(Cl)cc2)c(-c2ccc(Cl)cc2)[nH]1 [Example 38] | > 108 mg/kg | 10 mg/kg |  |
| Cc1c(SC(F)(F)F)[nH]c(-c2ccc(F)cc2)c1-c1ccc(F)cc1 [Example 31] |  |  | ED50 ([1]; Table VIII): > 135 mg/kg; ED50 ([2]; Rattus norvegicus, Table VIII): 0.6 mg/kg |
| CSc1cc(-c2ccc(F)cc2)c(-c2ccc(F)cc2)[nH]1 [Example 41] | > 108 mg/kg |  | inhibition in vivo at 27 mg/kg [2, 3]: 19% |
| COc1ccc(-c2cc(SC(F)(F)F)[nH]c2-c2ccc(OC)cc2)cc1 [Example 2, 4,5-Bis(4-methoxyphenyl)-2-(trifluoromethylthio)pyrrole] | 30 mg/kg | 1.7 mg/kg |  |
| CSc1ccc(-c2[nH]c(SC(F)(F)F)cc2-c2ccc(F)cc2)cc1 [Example 26] |  |  | ED50 ([1]; Table VIII): > 108 mg/kg; ED50 ([2]; Rattus norvegicus, Table VIII): 0.6 mg/kg |
| CS(=O)(=O)c1cc(-c2ccc(Cl)cc2)c(-c2ccc(F)cc2)[nH]1 [Example 66] | > 135 mg/kg | 27 mg/kg |  |
| O=S(=O)(c1cc(-c2ccccc2)c(-c2ccccc2)[nH]1)C(F)(F)F [Example 51] | 15 mg/kg |  | inhibition in vivo at 25 mg/kg [2, 3]: 46% |
| CSc1cc(-c2ccc(Cl)cc2)c(-c2ccccc2)[nH]1 [Example 48] | > 108 mg/kg |  | inhibition in vivo at 45 mg/kg ([2]; Rattus norvegicus, Table VII, oral, dose 45 mg/kg, read-out: percent reduction in paw volume at the indicated dose): 22% |
| CS(=O)(=O)c1cc(-c2ccc(F)cc2)c(-c2ccc(Cl)cc2)[nH]1 [Example 67] | 38 mg/kg | 50 mg/kg |  |
| CS(=O)(=O)c1cc(-c2ccc(Cl)cc2)c(-c2ccccc2)[nH]1 [Example 71] | > 108 mg/kg |  | inhibition in vivo at 27 mg/kg [2, 3]: 23% |
| FC(F)(F)Sc1cc(-c2ccc(Cl)cc2)c(-c2ccc(Cl)cc2)[nH]1 [Example 4] | > 130 mg/kg | 2.8 mg/kg |  |
| CS(=O)(=O)c1cc(-c2ccc(F)cc2)c(-c2ccc(F)cc2)[nH]1 [Example 64] | > 108 mg/kg |  | inhibition in vivo at 27 mg/kg [2, 3]: 25% |
| COc1ccc(-c2[nH]c(SC(F)(F)F)cc2-c2ccc(Cl)cc2)cc1 [Example 9] | > 108 mg/kg | 6 mg/kg |  |
| Fc1cccc(-c2cc(SC(F)(F)F)[nH]c2-c2cccc(F)c2)c1 [Example 13] | > 108 mg/kg |  | inhibition in vivo at 27 mg/kg [2, 3]: 33% |
| COc1ccc(-c2[nH]c(SC(F)(F)F)c(C)c2-c2ccc(OC)cc2)cc1 [Example 32] |  |  | ED50 ([2]; Rattus norvegicus, Table VIII): 2.2 mg/kg |
